Laboratory results: paper PMC7002685, “Inhibition of vascular calcification by inositol phosphates derivatized with ethylene glycol oligomers” (Nature Communications, 2020)
Values joined by “and” are separate entries in the source; they are usually repeats but may differ in a detail not shown here. Equal entries are not always repeated.

Tests used:
[1] = test system: transformation of CPP1 to CPP2 in pooled human serum; experiment: In vitro serum calcification propensity (T50) screening assay; assay type: biochemical; design: key to T50: T50 in minutes (time to 50% CPP phase transition); details: for T50: one value per experiment; for activity/unit mass: mean c350 x mw (Na salt); for concentration upon which a T50 of 350 min is reached (c350), mean: mean of n experiments; for concentration upon which a T50 of 350 min is reached (c350), single experiment: one value per experiment (lab journal reference E05-E40)
Description: The compounds were ranked for calcification inhibition activity using a nanoparticle-based test, developed for risk stratification, which measures the propensity for calcification in patient serum. […] The time, after which 50% of CPP phase transition occurred (T50), was assessed by time-resolved spectrophotometry at 550 nm (Supplementary Fig. 1a).
The screening assay was performed as described previously. In brief, pooled human serum (H4522, Sigma-Aldrich) stored at −20 °C was thawed at 37 °C, centrifuged (10,000 × g, and 4 °C, 30 min) (5427R, Eppendorf, Switzerland), and sterile filtered (0.22 μm filter, Millipore, Merck KGaA) to remove potential cryoprecipitates (cleared human serum). The calcium solution was 40 mM CaCl2 (102382, Merck KGaA) in HBS, pH 7.4 (RT) (100 mM HEPES (H3375, Sigma-Aldrich) and 140 mM NaCl (1734712, Fisher Scientific, Hampton, NH, USA)). […] All salt solutions and buffers were double sterile filtered (0.22 µm) and pre-warmed to 37 °C prior to use. […] The plate was sealed with an adhesive film and the absorption at 550 nm was measured every 3 min with 1 min in-between shaking for a total of 300 cycles at 37 °C using the infinite M200 microplate reader (Tecan, Männedorf, Switzerland). An A550 vs. time graph was generated and T50 (min) (time at half-maximum transition from CPP1 to CPP2) values were derived by sigmoidal curve fit using Prism 8 (nonlinear regression in the log(agonist) vs. response–variable slope (four parameter mode) using the robust fit fitting method, GraphPad Software, San Diego, CA, USA). Activities between compounds were compared by generating a T50 (min) vs. concentration (µM) graph, calculating nonlinear regression and deriving the concentration required to delay T50 to 350 min (c350) using a standard equation for the dose–response curve, Eq. (1), whereby x = [compound], y = time (min), bottom = baseline response, top = maximum response, T50 = [drug] that leads to half-maximum response, and the hill slope is a factor that describes the steepness of the curve.1 y= bottom+top - bottom/1+T50/x^hillslope.

[2] = Serum calcification propensity assay after 4.5 h incubation in enzymatically active human serum; details: compound at c350 concentration, 37 °C; individual donors, Fig. 2e
CPP2 = experiment: Competitive 18F-NaF binding assay on CPPs; design: species or system human
Description: A ^18F-NaF-based competitive binding assay was developed to indirectly assess the inhibitor affinity (IC50) to CPPs. The uptake mechanism of ^18F-NaF, a marker of micro-calcification activity by chemisorption onto hydroxyapatite crystals, is contingent on the rapid exchange of hydroxyl (OH^−) groups present on the hydroxyapatite surface (Ca5(PO4)3(OH)) by ^18F^− to form fluoroapatite (Ca5(PO4)3^18F)[34],[54].
Triplicate aliquots of CPP2s (20 µg Ca/mL) in 100 μL assay buffer (100 mM HBS, pH 7.4 (RT)) were incubated for 1 h at RT in the presence of increasing concentrations of compounds in 50 μL Milli-Q water and ^18F-NaF (1 nM) in 50 μL assay buffer, resulting in a total incubation volume of 200 μL (^18F-NaF was prepared using a FASTlab synthesizer (GE Healthcare, Little Chalfont, UK) and commercially available ^18F-NaF cassettes (GE Healthcare)). Maximum radiotracer binding was determined by incubating CPP2s with ^18F-NaF (1 nM) only. The reaction was terminated by rapid filtration through a SOLAμ™ SPE plate (HRP 2 mg/mL 96-well plate, 22 μm; Thermo Fisher Scientific). SPE individual column matrices were washed twice rapidly in assay buffer and radioactivity on the filters determined by an automatic gamma counter (Wizard2 Gamma Counter, Perkin Elmer, Waltham, MA, USA). […] IC50 is the concentration of […] that gives a response half way between the bottom and top parts of the curve. ^18F-NaF micro-PET/computed tomography (micro-PET/CT) was employed for ex vivo analysis of (OEG2)2-IP4’s engagement to target calcified human tissue explants, as described previously. […] Following incubations, samples were washed twice in 0.1 M PBS (1 min per wash) and mounted on a Petri dish for micro-PET/CT imaging (nanoPET/CT, Mediso, Budapest, Hungary). In total, seven samples from the femoral arteries of three patients with ischemic peripheral disease and three samples from native aortic valves of three patients undergoing valve replacement surgery were used. All samples were collected at the time of surgery and stored in 4% paraformaldehyde at RT until further use. All patients gave their written, informed consent. All procedures had local ethical approval (06/S0703/110, 12/WS/0227, 09/S0703/118, and 12/NW/0036). All studies were approved by East and West Scotland Research Ethics Committees, and all experiments were conducted according to the principles expressed in the Declaration of Helsinki.

## COCCOCCOCCOCCOCCOCCOCCOCCOCCOCCOCCO[C@@H]1[C@@H](OP(=O)(O)O)[C@H](OCCOCCOCCOCCOCCOCCOCCOCCOCCOCCOCCOC)[C@@H](OP(=O)(O)O)[C@@H](OP(=O)(O)O)[C@H]1OP(=O)(O)O [(OEG11)2-IP4, 4,6-Di-O-(methoxy-undecaethyleneglycol)-myo-inositol-1,2,3,5-tetrakis(phosphate)]
[1]; concentration 0.3 μM
  T50: 225.5 and 216.3 and 217.233
[1]; concentration 1 μM
  T50: 254.967 and 243.067 and 240.833
[1]; concentration 3 μM
  T50: 330.833 and 306.033 and 295.1
[1]; concentration 5 μM
  T50: 429.233 and 399.933 and 420.733
[1]; from c350
  fold greater molar activity in delaying serum calcification propensity than IP6: ~10 fold
[1]
  activity/unit mass: 6.28 mg/L
  concentration upon which a T50 of 350 min is reached (c350), mean: 3.8 µM
  concentration upon which a T50 of 350 min is reached (c350), single experiment: 3.4 µM and 3.9 µM
[2]
  ΔT50 after 4.5 h vs 0 h incubation in enzymatically active human serum: -7 min and 2 min and 28 min and -24 min

## NCCCC(O)(P(=O)(O)O)P(=O)(O)O [Alendronate, alendronate]
[1]; concentration 0.3 μM
  T50: 213.8 and 221.6 and 208.733 and 230.4 and 221.333 and 196.833
[1]; concentration 1 μM
  T50: 222.967 and 230.933 and 225.333 and 238.6 and 229.833 and 230.667
[1]; concentration 3 μM
  T50: 261.733 and 253 and 230.467 and 264.833 and 255.1 and 255.367
[1]; concentration 10 μM
  T50: 345.567 and 345.233 and 327.433 and 380.1 and 360.1 and 348.633
[1]; concentration 30 μM
  T50: 770.3 and 707.4
[1]
  activity/unit mass: 2.69 mg/L
  concentration upon which a T50 of 350 min is reached (c350), mean: 9.9 µM
  concentration upon which a T50 of 350 min is reached (c350), single experiment: 9.9 µM and 10.3 µM and 8.3 µM and 9.4 µM and 10.2 µM
CPP2; CPP2 20 µg Ca/mL, 18F-NaF 1 nM, 1 h RT, read-out: IC50 (reduction of 18F binding to CPP)
  IC50: 900 nM
CPP2; concentration 0.75 (unit not given)
  18F-NaF percentage binding to CPP2: 116.838% and 100.543% and 117.872%
CPP2; concentration 2.5 (unit not given)
  18F-NaF percentage binding to CPP2: 108.056% and 108.706% and 117.126%
CPP2; concentration 7.5 (unit not given)
  18F-NaF percentage binding to CPP2: 96.3113% and 120.411% and 97.661%
CPP2; concentration 25 (unit not given)
  18F-NaF percentage binding to CPP2: 95.6416% and 106.619%
CPP2; concentration 75 (unit not given)
  18F-NaF percentage binding to CPP2: 102.247% and 106.699% and 103.897%
CPP2; concentration 250 (unit not given)
  18F-NaF percentage binding to CPP2: 99.9294% and 104.809% and 85.4465%
CPP2; concentration 1750 (unit not given)
  18F-NaF percentage binding to CPP2: 35.8884% and 43.4211% and 42.6767%
CPP2; concentration 2500 (unit not given)
  18F-NaF percentage binding to CPP2: 62.647% and 51.2379% and 44.8192%
CPP2; concentration 7500 (unit not given)
  18F-NaF percentage binding to CPP2: 62.7542% and 48.4658% and 45.2944%
CPP2; concentration 25000 (unit not given)
  18F-NaF percentage binding to CPP2: 44.4078% and 32.6852% and 32.8795%
CPP2; concentration 75000 (unit not given)
  18F-NaF percentage binding to CPP2: 35.0722% and 24.2405% and 29.2905%
CPP2; concentration 250000 (unit not given)
  18F-NaF percentage binding to CPP2: 26.7145% and 19.4967% and 18.0105%
CPP2; concentration 750000 (unit not given), replicates Fig. 2c
  18F-NaF percentage binding to CPP2: 36.7136% and 30.5284% and 26.7151%
